According to US20240287564A1, “ACHOLETIN BIOPOLYMERS AND METHODS FOR ENZYMATIC SYNTHESIS” (THE UNIVERSITY OF BRITISH COLUMBIA, priority 2021, published 2024):

How the values were obtained:
[1] = molecular target: T1, AchP (Acholeplasma laidlawii, UniProt A9NH41); test: Purified AchP donor and acceptor specificity screen; format: biochemical; conditions: 3 h room temperature, absorbance 655 nm
Method: AchP was heterologously expressed, purified and screened, in the absence of cell lysate, against an extended set of donors and acceptors, including additional N-acetamido sugars, using a phosphorylase screening method described previously that couples the chromogenic development of molybdenum blue to the liberation of free phosphate during reverse phosphorolysis^39,41 (FIG. 1A). When incubated with Glc1-P as donor, AchP was active in the presence of the acceptors GlcNAc, GlcNAc-β1-pNP, GalNAc and GlcNAc-β1,4-GlcNAc, while no activity was detected with the non-acetylated glucosamine and galactosamine. With GlcNAc1-P as donor, AchP was active with all acceptors that contained an N-acetyl moiety, as well as with glucose and glucosamine, but not galactose and galactosamine.
Thirty-six donor and acceptor combinations were done with purified AchP in a 25 μL reaction volume. 10 μL buffer (200 mM HEPES pH 7.0, 200 mM NaCl, 10 mM MgSO4, 400 mM sodium molybdate) was combined with 5 μL water, 2.5 μL donor (100 mM Glc1-P, 100 mM GlcNAc1-P or 100 mM GalNAc1-P) and 2.5 acceptor (500 mM Glc, 400 mM GlcN, 500 mM GlcNAc, 100 mM GlcNAc-β1-pNP, 500 mM Gal, 500 mM GalN, 500 mM GalNAc, 100 mM GalNAc-α1-pNP, 100 mM Glc-β1,3-Glc, 100 mM GlcNAc-β1,4-GlcNAc, 500 mM ManNAc or no acceptor) in a 200 μL PCR tube. 5 μL of purified AchP (0.2 mg/mL) was added to each reaction which were then incubated for 3 h at room temperature. Each 25 μL reaction was transferred to a separate well of a 96-well plate. 75 μL of development solution was added to each well then incubated for 5 min at room temperature before the reaction was stopped by adding 50 μL of quenching solution. Absorbance at 655 nm was measured with a BioTek Synergy H1 Hybrid™ microtiter plate reader.

[2] = molecular target: GH101 endo-α-N-acetylgalactosamindase (EngSP) (Streptococcus pneumoniae, UniProt Q8DR60); conditions: only minimal aglycone release in controls
Sequence of GH101 endo-α-N-acetylgalactosamindase (EngSP) (Q8DR60 40-1738 limits assumed): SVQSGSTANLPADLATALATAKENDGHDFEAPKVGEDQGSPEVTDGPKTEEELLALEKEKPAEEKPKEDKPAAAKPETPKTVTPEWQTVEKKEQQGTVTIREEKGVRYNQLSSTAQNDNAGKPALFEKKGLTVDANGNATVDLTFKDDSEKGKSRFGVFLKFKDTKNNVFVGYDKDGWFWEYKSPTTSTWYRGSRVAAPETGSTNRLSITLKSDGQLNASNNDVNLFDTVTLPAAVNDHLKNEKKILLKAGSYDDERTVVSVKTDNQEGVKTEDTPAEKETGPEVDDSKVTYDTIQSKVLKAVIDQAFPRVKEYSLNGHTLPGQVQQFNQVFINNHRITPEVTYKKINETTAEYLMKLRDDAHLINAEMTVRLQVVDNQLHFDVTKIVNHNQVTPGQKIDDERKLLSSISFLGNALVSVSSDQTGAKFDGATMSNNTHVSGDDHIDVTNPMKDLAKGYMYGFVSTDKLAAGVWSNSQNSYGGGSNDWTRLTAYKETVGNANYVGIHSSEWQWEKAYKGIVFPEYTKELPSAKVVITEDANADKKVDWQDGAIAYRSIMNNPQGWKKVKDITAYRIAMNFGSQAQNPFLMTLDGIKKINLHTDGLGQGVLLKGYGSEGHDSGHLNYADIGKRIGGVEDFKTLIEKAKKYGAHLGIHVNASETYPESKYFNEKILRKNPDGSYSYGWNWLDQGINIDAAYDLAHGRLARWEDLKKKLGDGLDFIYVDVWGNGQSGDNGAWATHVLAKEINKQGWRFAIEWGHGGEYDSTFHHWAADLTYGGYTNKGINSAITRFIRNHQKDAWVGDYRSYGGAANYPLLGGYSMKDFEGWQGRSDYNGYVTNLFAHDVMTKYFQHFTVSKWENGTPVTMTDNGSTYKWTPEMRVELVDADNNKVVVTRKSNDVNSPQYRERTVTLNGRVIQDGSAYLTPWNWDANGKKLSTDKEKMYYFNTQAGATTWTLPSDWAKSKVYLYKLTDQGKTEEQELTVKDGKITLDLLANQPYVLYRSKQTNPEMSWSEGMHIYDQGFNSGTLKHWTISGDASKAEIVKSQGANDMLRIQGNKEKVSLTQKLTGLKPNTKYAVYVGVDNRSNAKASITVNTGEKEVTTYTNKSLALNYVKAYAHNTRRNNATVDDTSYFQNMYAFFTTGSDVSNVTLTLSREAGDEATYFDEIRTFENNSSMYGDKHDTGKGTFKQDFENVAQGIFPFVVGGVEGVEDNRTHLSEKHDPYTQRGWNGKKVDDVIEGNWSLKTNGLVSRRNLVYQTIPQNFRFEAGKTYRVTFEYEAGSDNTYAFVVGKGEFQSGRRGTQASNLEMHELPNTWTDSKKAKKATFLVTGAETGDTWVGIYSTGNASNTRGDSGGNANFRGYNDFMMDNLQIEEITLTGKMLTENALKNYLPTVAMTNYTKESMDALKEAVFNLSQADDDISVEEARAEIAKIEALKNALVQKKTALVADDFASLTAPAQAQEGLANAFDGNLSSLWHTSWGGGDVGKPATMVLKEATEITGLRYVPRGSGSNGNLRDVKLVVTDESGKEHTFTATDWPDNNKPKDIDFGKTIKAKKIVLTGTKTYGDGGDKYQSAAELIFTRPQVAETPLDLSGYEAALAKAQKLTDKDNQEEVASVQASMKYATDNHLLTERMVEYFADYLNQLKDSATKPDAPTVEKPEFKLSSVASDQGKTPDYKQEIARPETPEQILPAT
Method: Both GlcNAc-β1,3-GalNAc-MU and GlcNAc-β1,3-GalNAc-pNP were assayed as potential substrates for the core 3 T-antigen cleaving enzyme endo-α-N-acetylgalactosaminidase from Streptococcus pneumoniae R6 (EngSP)^47,66. For GlcNAc-β1,3-GalNAc-MU, in a 96-well plate 2 μL of the AchP reaction was combined with 48 μL reaction buffer A and reaction initiated by adding 0.4 μL spGH101 (10 mg/mL). Release of MU was monitored continuously in a BioTek Synergy H1 Hybrid™ microtiter plate reader (Ex. 365 nm, Em. 440 nm) (FIG. 6). For GlcNAc-β1,3-GalNAc-pNP, in a 96-well plate 10 μL of the AchP reaction was combined with 39 μL reaction buffer A and initiated by adding 1 μL EngSP (10 mg/mL). Release of pNP was monitored continuously in a BioTek Synergy H1 Hybrid™ microtiter plate reader (absorbance 400 nm) (FIG. 6).

[3] = molecular target: T1, AchP; test: AchP reverse phosphorolysis kinetics (phosphate release, molybdenum blue); format: biochemical; conditions: as donor (GalNAc1-P) or acceptor (glucose); reasonable substrate and enzyme concentrations
[4] = molecular target: T1, AchP; test: as above; format: biochemical
Method: (§1) Kinetic parameters for AchP reverse phosphorolysis were determined using the phosphate release method described previously^44. In brief, phosphate release was coupled to the formation of molybdenum blue, which can be quantified by measuring absorbance at 655 nm. Phosphate concentration was determined using a standard curve ranging between 0 and 10 mM phosphate. Kinetic parameters for AchP were determined with four donor and acceptor combinations: (A) Glc1-P and GlcNAc, (B) Glc1-P and GalNAc, (C) GlcNAc1-P and GlcNAc, and (D) GlcNAc1-P and GalNAc. Donor concentration was held constant at 10 mM while the concentrations of the acceptors were varied (as described below). Reactions were initiated by adding 5 μL of 0.25 mg/mL AchP to 10 μL 2× buffer (200 mM HEPES pH 7.0, 200 mM NaCl, 10 mM MgSO4 and 400 mM sodium molybdate), 2.5 μL of 100 mM donor, 2.5 μL of […] acceptor and 5 μL water. Reactions were stopped at the times (t) indicated below by boiling for 5 min, then 20 μL from each reaction was transferred to a 96-well plate. Molybdenum blue formation was initiated by adding 90 μL of color development solution (0.1 N HCl and 0.24% sodium ascorbate) then incubated for 30 min at room temperature. The color development reaction was stopped by adding 90 μL of quenching solution (68 mM sodium citrate and 2% acetic acid). Absorbance at 655 nm was measured with a BioTek Synergy H1 Hybrid™ microtiter plate reader. All reactions were performed in triplicate and acceptor concentrations were chosen to encompass apparent Km value where possible. (A) 10 mM Glc1-P; 0, 1, 5, 10, 25, 50, 100, 200 and 300 mM GlcNAc; t=2 min 45 s. (B) 10 mM Glc1-P; 0, 5, 25, 50, 100, 150, 200, 300 and 380 mM GalNAc; t=5 min. (C) 10 mM GlcNAc1-P; 0, 0.1, 0.25, 0.5, 1, 2, 5, 10, 25 and 50 mM GlcNAc; t=3 min. (D) 10 mM GlcNAc1-P; 0, 5, 10, 25, 50, 100, 150, 200 and 300 mM GalNAc; t=3 min. Non-linear regression was performed using GraphPad Prism™ version 6.0. For (A) and (C) data were fit using the Michaelis-Menten equation incorporating substrate inhibition: For (B) and (D) data were fit using the standard Michaelis-Menten equation: […]

[5] = molecular target: T1, AchP; test: AchP forward phosphorolysis product analysis (TLC); format: biochemical; conditions: with phosphate
Method: (A) AchP products with GlcNAc1-P (donor) and GlcNAc (GNAc1), GlcNAc-β1,4-GlcNAc (GNAc2), or GlcNAc(-β1,4-GlcNAc)3 (GNAc4) (acceptors) were analyzed by TLC, where the products are outlined in black boxes. (B) AchP forward phosphorolysis product analysis with GlcNAc-β1,4-GlcNAc and phosphate and the reverse phosphorolysis with Glc1-P and GlcNAc was include as a control reaction.
Of the six activities described to date in the GH94 family only the N,N′-diacetylchitobiose phosphorylases (ChbP) are known to use GlcNAc1-P as donor, transferring only to monosaccharide GlcNAc acceptors and not to di- or trisaccharides. The other five types utilize Glc1-P. The bacteria from which both characterized ChbPs were discovered are native to marine environments where chitin, a polysaccharide of β1,4-linked GlcNAc and the primary structural component of the exoskeleton of marine invertebrates, is common. Presumably these ChbPs act on disaccharides released from chitin by chitinases. AchP on the other hand is able to utilize GlcNAc-β1,4-GlcNAc and GlcNAc(-β1,4-GlcNAc)3 as acceptors performing iterative addition of N-acetylglucosaminyl residues (FIG. 4A). As noted earlier, we initially anticipated that AchP was a chitin phosphorylase. […]

[6] = substrate: CC(=O)NC1C(O)[C@@H](O)C(CO)O[C@@H]1O; test: AchP reverse phosphorolysis kinetics (phosphate release, molybdenum blue); format: biochemical, Acholeplasma laidlawii; conditions: other: donor αGlcNAc1-P 10 mM; acceptor concentration varied; pH 7.0
Method: as §1

[7] = substrate: CC(=O)NC1C(O)[C@H](O)C(CO)O[C@H]1O; test: as above; format: biochemical, Acholeplasma laidlawii; conditions: acceptor concentration varied, pH 7.0
Method: as §1

Molecule: N[C@H]1C(O)O[C@H](CO)[C@H](O)[C@@H]1O (stereo partly drawn) [galactosamine]
- AchP activity with acceptor ([1]; Glc1-P as donor): no activity
- AchP activity with acceptor ([1]; GlcNAc1-P as donor): not

Molecule: OC[C@H]1O[C@@H](O[C@H]2[C@H](O)[C@@H](CO)OC(O)[C@@H]2O)[C@H](O)[C@@H](O)[C@@H]1O (stereo partly drawn) [laminaribiose]
- AchP activity with acceptor ([1]; Glc1-P as donor): no activity

Molecule: CC(=O)N[C@H]1[C@H](Oc2ccc([N+](=O)[O-])cc2)O[C@H](CO)[C@@H](O)[C@@H]1O [GlcNAc-β1-pNP]
- AchP activity with acceptor ([1]; Glc1-P as donor): active

Molecule: CC(=O)NC1C(OC2C(O)C(CO)OC(Oc3ccc4c(C)cc(=O)oc4c3)C2NC(C)=O)OC(CO)C(O)C1O (stereo not drawn) [GlcNAc-β1,3-GalNAc-α1-MU]
- aglycone release after incubation with EngSP [2]: release of both pNP and MU aglycones could be detected

Molecule: CC(=O)N[C@H]1C(OP(=O)(O)O)O[C@H](CO)[C@H](O)[C@@H]1O (stereo partly drawn) [GalNAc1-P]
- Activities (kinetic parameters not determined) [3]: too low

Molecule: O=C[C@H](O)[C@@H](O)[C@@H](O)[C@H](O)CO [galactose, D-galactose]
- AchP activity with acceptor ([1]; GlcNAc1-P as donor): not

Molecule: CC(=O)NC1C(O)[C@H](O)C(CO)O[C@H]1O (stereo partly drawn) [GlcNAc, N-acetyl-glucosamine]
- Ki ([4]; donor αGlcNAc1-P 10 mM, substrate inhibition fit): 27.1 ± 3.6 mM
- AchP activity with acceptor ([1]; Glc1-P as donor): active

Molecule: N[C@H]1C(O)O[C@H](CO)[C@@H](O)[C@@H]1O (stereo partly drawn) [glucosamine]
- AchP activity with acceptor ([1]; Glc1-P as donor): no activity
- AchP activity with acceptor ([1]; GlcNAc1-P as donor): active

Molecule: CC(=O)N[C@H]1[C@H](O[C@H]2[C@H](O)[C@@H](NC(C)=O)C(O)O[C@@H]2CO)O[C@H](CO)[C@@H](O)[C@@H]1O (stereo partly drawn) [GlcNAc-β1,4-GlcNAc, N,N′-diacetylchitobiose]
- AchP activity with acceptor ([1]; Glc1-P as donor): active
- phosphorolysis (substrate cleavage) [5]: no substrate cleavage could be detected

Molecule: CC(=O)NC1C(O)[C@@H](O)C(CO)O[C@@H]1O (stereo partly drawn) [GalNAc, N-acetylgalactosamine]
- kcat ([4]; donor αGlc1-P 10 mM, acceptor concentration varied): 12.5 ± 0.5 s⁻¹
- AchP activity with acceptor ([1]; Glc1-P as donor): active

Molecule: CC(=O)NC1C(OC2C(O)C(CO)OC(Oc3ccc([N+](=O)[O-])cc3)C2NC(C)=O)OC(CO)C(O)C1O (stereo not drawn) [GlcNAc-β1,3-GalNAc-α1-pNP]
- aglycone release after incubation with EngSP [2]: release of both pNP and MU aglycones could be detected

Molecule: CC(=O)N[C@H]1[C@@H](OP(=O)(O)O)O[C@H](CO)[C@@H](O)[C@@H]1O [GlcNAc1-P, α-N-acetylglucosamine 1-phosphate]
- Km value lower than with Glc1-P as donor ([4]; GlcNAc as acceptor): ~10 fold
- kcat greater than with Glc1-P as donor ([4]; GlcNAc as acceptor): 2 fold

B1: AchP (Acholeplasma laidlawii PG-8A) (protein)
chain: MKLKQDVISIYQKISLFESGQLNITKLASGAYYLDDELTLITDPVNSGARFPYAVNGMTIWAYASGYISINHSSYYILPPNLEGKEPFLDFFGIEQDGNNTYPVSLLGVSERNDEIENKRYTVFSKNIAYYITVTKNFLYAVTVYISKDFKIYFNTVAHNLTGETKQITLSSFFNMLFKYDSGESIETKWFKKVSYENNMFIYDAPEDIDRHTRIENYGVVKRHLHTKPKNIQNTTSRIDYVGKRYRSVRNALSIRSLKFEKAPLVTNFTDTAINADLINYEVKAYDTIISSYRIETCHDKDTLNKMMASDLTDKEIKKVYEGLSNTQSYDFDNFGISFKGVNDNRVDDKVLNQFLKLVNYQIHFSSLSSNSGTVFLGVRDVMQQLESSLIWDRKNVRSKILEVLSFIDPSGLPPRQYALPPKEGNPRMDLRPFIDQGLWIISTLHTYLAYTEDYDILNEVCGYYERIEPNSAKKSKVENSVLEHLIRVTNYLVSNIDPSTYGLKALYGDWNDALDGLGLIEGSSGYGNGVSVMATLQLYENLERMIEILKLVDPQNEHINTYEVVRHNLSLGINKYAVVIKQDEKRVLHGWGHDRSYFVGSFNDPDGHSRNSLTSNAFYIISDMIKNTPEMKPHLLHAFHNLDSKYGLKTFDPAMQDFHGFGRIINLPPGTAENAATYVHATLFGVLALYMLGEGDFANEQVLKVLPITKKEMSTSPFIMPNSYVHNEELNMDGESMSDWYTGSANTLLKTLIRGLFGLEVKFDHLRLRPSKAFFSKEATLMVSIGNKLTRIVYKNNNNGNRTFKLNGKVIEAKLDTLSGLLYIDINKSILEHQNVIHIQD
- Km [6]: 71.4 ± 4.1 mM
- kcat [6]: 46.7 ± 0.9 s⁻¹
- kcat/Km [6]: 700 ± 200 M⁻¹ s⁻¹
- Km ([7]; other: donor αGlc1-P 10 mM): 29.9 ± 3.7 mM
- kcat ([7]; other: donor αGlc1-P 10 mM): 24.2 ± 1.6 s⁻¹
- kcat/Km ([7]; other: donor αGlc1-P 10 mM): 800 ± 400 M⁻¹ s⁻¹
- Km ([7]; other: donor αGlcNAc1-P 10 mM): 3.5 ± 0.4 mM
- kcat ([7]; other: donor αGlcNAc1-P 10 mM): 50.8 ± 3.2 s⁻¹
- kcat/Km ([7]; other: donor αGlcNAc1-P 10 mM): 14500 ± 8000 M⁻¹ s⁻¹
